Measurements taken from patent US9079881B2, “Polymorph of 1-(2-methyl-4-(2,3,4,5-tetrahydro-1-benzazepin-1-ylcarbonyl)benzylcarbamoyl)-L-proline-N,N-dimethylamide” (Vantia Limited, priority 2010, dated 2015).
“Also recorded” adds a separate entry of the source. Where two headings read alike, the source gives them in different places.

Key:
vasopressin V2 receptor = molecular target: T1, vasopressin V2 receptor (Rattus norvegicus, UniProt Q00788); assay: in vivo assay described in PCT/GB2001/000023 (inhibition of urine output); conditions: at 1 hour, dosed at 1 mg/Kg
T1 construct: from tissue; host or cells: whole animal (in vivo)
Source text: The ability of the crystalline form of the invention to agonise the vasopressin V2 receptor may be determined using the in vivo assay described in PCT/GB2001/000023.

[1] = Stability testing: storage for 6 months at 40° C. and 75% relative humidity (Karl Fischer, HPLC, appearance); assay type: physicochemical; conditions: for sum of impurities (HPLC), initial / water / moisture content (Karl Fischer), initial: before storage
Protocol: Karl Fischer moisture content determination was carried out using Metrohm 795 KFT volumetric Karl Fischer apparatus. Sample size was approximately 100 mg and the determination was carried out in duplicate.
HPLC data were collected using a Zorbax Extend C18, 2.1 mm×150 mm, 5 μm d.p. column. Flow rate was 0.3 mL/min. Injection volume was 10 μL, detector wavelength 220 nm and column temperature 40° C. Eluent A was 10 mM aqueous ammonium acetate, pH 5.0. Eluent B was 20:80 v/v 10 mM aqueous ammonium acetate: acetonitrile. The gradient programme is shown below: […]
Also, there is no significant degradation as measured by the sum of impurities which increases only from 0.9% to 1.0% (HPLC).

[2] = Gravimetric Vapour Sorption Analysis (GVA), hygroscopicity testing; assay type: physicochemical
Protocol: Gravimetric Vapour Sorption Analysis (GVA) was carried out with approximately 20 mg of sample placed into a suitable sample holder such as a wire-mesh vapour sorption balance pan. This was loaded into either an IGAsorp (Hiden Analytical Instruments) or a DVS Intrinsic (Surface Measurement Systems) vapour sorption balance held at 25+/−0.1° C. The sample was then dried by maintaining a 0% humidity environment until no further weight change was recorded (alternatively, the sorption/desorption cycle is initiated at typical ambient conditions of 40% relative humidity). Subsequently, the sample was then subjected to a ramping profile up to 90% relative humidity at 10% relative humidity increments, maintaining the sample at each step until equilibration had been attained (99.5% step completion). Upon reaching equilibration, the relative humidity within the apparatus was ramped to the next step and the equilibration procedure repeated. After completion of the sorption cycle, the sample was then dried using the same procedure. The weight change during the sorption/desorption cycles was then monitored, allowing for the hygroscopic nature of the sample to be determined.
The amorphous form is hygroscopic as indicated by Gravimetric Vapour Sorption Analysis (GVA).
In contrast, there was no significant water uptake observed between 40% RH and 90% RH (approximately 0.3% w/w) by the crystalline solid form (the water sorption/desorption isotherms are shown in FIGS. 9 and 10).

[3] = 6 months at 40° C. and 75% relative humidity

T1 sequence (Q00788 whole entry): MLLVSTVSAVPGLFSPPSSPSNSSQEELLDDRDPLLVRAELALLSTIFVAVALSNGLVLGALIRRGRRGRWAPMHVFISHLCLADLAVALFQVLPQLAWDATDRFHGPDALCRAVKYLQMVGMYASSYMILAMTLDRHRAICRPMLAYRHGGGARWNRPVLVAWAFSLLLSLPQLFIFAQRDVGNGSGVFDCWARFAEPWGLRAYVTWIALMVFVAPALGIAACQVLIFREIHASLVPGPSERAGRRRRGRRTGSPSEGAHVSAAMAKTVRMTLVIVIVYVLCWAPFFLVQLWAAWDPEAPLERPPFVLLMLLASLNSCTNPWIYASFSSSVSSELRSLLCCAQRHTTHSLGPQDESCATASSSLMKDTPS

SMILES | inhibition of urine output (vasopressin V2 receptor) | appearance after storage [1, 3] | sum of impurities (HPLC) after storage [1, 3] | water / moisture content (Karl Fischer) after storage [1, 3] | sum of impurities (HPLC), initial [1] | water / moisture content (Karl Fischer), initial [1] | hygroscopicity (in words) [2] | change in solid form over the entire water sorption range [2] | hygroscopicity (in words) ([2]; listed as amorphous solid) | stability (in words) [1, 3] | water / moisture content (Karl Fischer), initial ([1]; listed as Form 1) | water uptake between 40% RH and 90% RH ([2]; 25 °C, 40% RH to 90% RH) | change in solid form over the entire water sorption range ([2]; listed as crystalline solid form)
Cc1cc(C(=O)N2CCCCc3ccccc32)ccc1CNC(=O)N1CCC[C@H]1C(=O)N(C)C [1-(2-methyl-4-(2,3,4,5-tetrahydro-1-benzazepin-1-ylcarbonyl)benzylcarbamoyl)-L-proline-N,N-dimethylamide] | 82% | – | – | – | – | – | – | – | – | – | – | – | –
Cc1cc(C(=O)N2CCCCc3ccccc32)ccc1CNC(=O)N1CCC[C@H]1C(=O)N(C)C [amorphous form, 1-(2-methyl-4-(2,3,4,5-tetrahydro-1-benzazepin-1-ylcarbonyl)benzylcarbamoyl)-L-proline-N,N-dimethylamide] | – | became glassy in appearance and became yellow in colour; also recorded: became glassy in appearance and yellow in colour | 3.7% | 5.7% | 1.5% | 1.3% | highly hygroscopic | remained stable to recrystallisation | hygroscopic | – | – | – | –
Cc1cc(C(=O)N2CCCCc3ccccc32)ccc1CNC(=O)N1CCC[C@H]1C(=O)N(C)C [crystalline form, 1-(2-methyl-4-(2,3,4,5-tetrahydro-1-benzazepin-1-ylcarbonyl)benzylcarbamoyl)-L-proline-N,N-dimethylamide] | – | remains as a white powder | 1.0% | 3.8% | 0.9% | – | much less hygroscopic than the amorphous form | Neither is there any change in solid form | – | more stable than the amorphous form | 3.8% | approximately 0.3 % w/w | no change in solid state form
